Measurements from patent publication US20060142194A1, “Methods and compounds for treating brain amyloidosis” (Evotec NeuroSciences GmbH, priority 2000, published 2006).
Entries after “also recorded” stand apart in the source; their conditions may differ.

Columns and labels:
NL-1 (neprilysin like 1) = molecular target: T1, NL-1 (neprilysin like 1) (Mus musculus, UniProt Q9JLI3); conditions: cited from earlier work
T1 sequence (Q9JLI3 63-765): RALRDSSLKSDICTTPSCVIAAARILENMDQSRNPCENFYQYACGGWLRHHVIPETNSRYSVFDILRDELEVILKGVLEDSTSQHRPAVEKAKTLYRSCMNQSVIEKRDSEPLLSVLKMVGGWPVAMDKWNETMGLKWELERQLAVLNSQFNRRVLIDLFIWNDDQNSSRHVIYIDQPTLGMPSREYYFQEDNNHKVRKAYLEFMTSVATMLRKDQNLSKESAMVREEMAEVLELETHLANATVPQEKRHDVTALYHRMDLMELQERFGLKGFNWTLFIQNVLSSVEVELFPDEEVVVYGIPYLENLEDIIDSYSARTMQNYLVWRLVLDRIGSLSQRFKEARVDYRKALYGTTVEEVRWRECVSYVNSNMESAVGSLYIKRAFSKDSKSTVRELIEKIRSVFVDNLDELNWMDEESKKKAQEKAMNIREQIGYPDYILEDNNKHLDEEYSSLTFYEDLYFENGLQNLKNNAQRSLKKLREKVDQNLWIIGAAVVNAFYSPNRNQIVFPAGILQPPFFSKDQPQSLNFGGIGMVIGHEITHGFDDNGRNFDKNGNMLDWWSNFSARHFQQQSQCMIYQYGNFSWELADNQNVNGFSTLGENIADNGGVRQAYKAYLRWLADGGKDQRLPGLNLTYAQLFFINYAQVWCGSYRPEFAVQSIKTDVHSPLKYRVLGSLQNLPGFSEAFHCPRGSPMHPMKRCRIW

human Aβ = experiment: Aβ sandwich ELISA on formic acid extracted brain tissue; assay type: in vivo; conditions: SwAPP mice, 20 weeks after injection, n=4; vs untreated SwAPP littermates; p≦0.05
Method: (§1) Preparation of tissue: For combined Western blot analyses and immunohistochemistry, mice were deeply anesthetized and were perfused transcardially using ice-cold PBS (pH 7.4). Frontal cortices of both hemispheres were homogenized in lysis buffer containing 1% Triton X-100, 10 mM Tris, 250 mM sucrose, and 1× complete proteinase inhibitor cocktail, pH=8 (Roche, Switzerland). The remaining brain tissue was fixed over night in 4% paraformaldehyde solution at 4° C. and washed several times in PBS and embedded in paraffin for immuno-histochemistry. For combined immunocytochemistry and Aβ-ELISA, mice were perfused with 4% paraformaldehyde and postfixed in the same solution over night. […]
Aβ-ELISA: For quantitation of Aβ content in mouse brain, protein extracts of fixed brain tissue reaching from the stereotaxic coordinates intraaural 1 to intraaural −2 were prepared. […] 150 μl diluted samples or standards (Aβ40 Bachem) were incubated overnight, washed, and detected with biotinylated monoclonal mouse antibody 6H1 directed against amino acids 1-17 of human Aβ (Evotec Neurosciences GmbH) incubated at a concentration of 1 μg/ml in blocking buffer for 2 hours at 37° C., and visualised with a peroxidase reaction using tetramethylbenzidine as substrate, and detection at 450 nm. […]

transgenic SwAPP mice [1] = experiment: Brain amyloid plaque staining and counts (thioflavin S, 4G8) in SwAPP mice; assay type: in vivo
Method: Animals: Transgenic mice expressing the AD-causing Swedish double mutant of the human APP gene were generated and bred as described previously (Hsiao K. K. et al., Neuron 15, 1203-1218, 1995; Hsiao K. et al., Science 274, 99-102, 1996). All mice used in this study were the progeny of a single SwAPP male, crossbred to wild-type littermates. The colony was housed under a light cycle of 12 hours with dry food and water ad libitum. The presence of the transgene was determined by PCR on genomic DNA isolated from tail biopsies using specific primers GTGGATAACCCCTCCCCCAGCCTAGACCA and CTGACCACTCGACCAGGTTCTGGGT to the transgene. […] After the injection, the needle was left in place for 1 more minute, and then was slowly withdrawn over a period of 1 minute. […]
(§2) To be sure that no amyloid plaques were missed in the mice, every 50th coronal section (250 μm apart) of all mice was stained, beginning with a random section of the olfactory bulbs. […] Existing plaques in 3 representative sections of each mouse were counted. […] To determine whether the reduced amyloid pathology was associated with reduced concentrations of transgenic Aβ, human Aβ was measured by a sandwich ELISA that specifically recognized intact human Aβ (Nitsch, R. M. et al., Ann. Neurol. in Press). As expected, no human Aβ was detected by ELISA in wild-type mice.

transgenic SwAPP mice [2] = experiment: GFAP staining of reactive astrocytes (astrogliosis); assay type: in vivo
Method: Preparation of tissue: For combined Western blot analyses and immunohistochemistry, mice were deeply anesthetized and were perfused transcardially using ice-cold PBS (pH 7.4). Frontal cortices of both hemispheres were homogenized in lysis buffer containing 1% Triton X-100, 10 mM Tris, 250 mM sucrose, and 1× complete proteinase inhibitor cocktail, pH=8 (Roche, Switzerland). The remaining brain tissue was fixed over night in 4% paraformaldehyde solution at 4° C. and washed several times in PBS and embedded in paraffin for immuno-histochemistry. For combined immunocytochemistry and Aβ-ELISA, mice were perfused with 4% paraformaldehyde and postfixed in the same solution over night. The caudal parts of the brains reaching from intraaural 1 to intraaural −2 (Franklin, K. B. J, Paxinos, G. Academic Press, 1997) were dissected and prepared for Aβ ELISA. The remaining brain tissue was embedded in paraffin and then processed for immunohistochemistry. Five μm thick paraffin sections were probed with antibodies against NEP, IDE (Insulin degrading enzyme), ACE (Angiotensin converting enzyme), endopeptidase 24.15 protein, and GFAP (glial fibrillary protein) according to providers' protocols and counterstained with nuclear fast red (Fluka, Switzerland).
Prevention of amyloid formation was accompanied by reduced reactive astrocytosis: Because brain amyloidosis in SwAPP mice is accompanied by reactive astrocytosis, GFAP-reactive astrocytes were analysed in response to the Aβ42-injection protocol (FIG. 6 a-c). […] Similar activation of astrocytes in brain regions unaffected by amyloid plaque formation is a well established finding in transgenic mice that overexpress disease-causing APP mutants (Schenk D. et al., Nature 400, 173-177, 1999). It may be explained by high sensitivity of hippocampal astrocytes to unknown toxic activities related to the expression of the SwAPP transgene; these may well be independent of amyloid plaque formation.

metalloprotease 24.15 = experiment: Metalloprotease 24.15 brain levels; assay type: in vivo, mice; conditions: in response to Aβ injections
Method: as §1
(§3) Western-blot analysis: Protein concentration of brain extracts were determined with the Bredford protein assay and equal amounts of protein (60 μg) were loaded to each lane of 8% acrylamid gels in Laemmli buffer. […]
(§4) Role of other Aβ degrading enzymes: To determine whether other Aβ-degrading proteases were involved in preventing amyloid formation in the above described mice, brain tissue levels of insulin-degrading enzyme (IDE), a 100 kD Zn-metallo-proteinase that is a major Aβ-degrading enzyme in tissue culture (Qiu W. Q. et al., J. Biol. Chem. 273, 32730-32738, 1998; Vekrellis K. et al., J. Neurosci., 20, 1657-1665, 2000) were analysed by immunohistochemistry and Western blotting. […]

NEP [3] = experiment: NEP immunohistochemistry of brain sections after intracranial Aβ42 injection; assay type: in vivo; conditions: single intracranial injection of 1 μl aggregated Aβ42 (350 μM); SwAPP and wild-type mice; 11 and 20 weeks after injection; vs PBS
Method: Animals: Transgenic mice expressing the AD-causing Swedish double mutant of the human APP gene were generated and bred as described previously (Hsiao K. K. et al., Neuron 15, 1203-1218, 1995; Hsiao K. et al., Science 274, 99-102, 1996). All mice used in this study were the progeny of a single SwAPP male, crossbred to wild-type littermates. The colony was housed under a light cycle of 12 hours with dry food and water ad libitum. The presence of the transgene was determined by PCR on genomic DNA isolated from tail biopsies using specific primers GTGGATAACCCCTCCCCCAGCCTAGACCA and CTGACCACTCGACCAGGTTCTGGGT to the transgene. […] After the injection, the needle was left in place for 1 more minute, and then was slowly withdrawn over a period of 1 minute.
Preparation of tissue: For combined Western blot analyses and immunohistochemistry, mice were deeply anesthetized and were perfused transcardially using ice-cold PBS (pH 7.4). […]
In contrast, in SwAPP mice as well as in wild-type littermates injected with PBS vehicle alone, neuronal NEP staining was weak and diffuse (FIG. 2 a-c, g-i). […] To confirm this finding, we next analysed brain proteins prepared from Aβ42-injected mice extracts by Western blotting.

PDAPP transgenic mouse = conditions: cited from earlier work
APP = APP levels by Western blots of protein extracts; assay type: in vivo; conditions: Aβ42- or vehicle treated, or untreated transgenic mice
Method: Western-blot analysis: Protein concentration of brain extracts were determined with the Bredford protein assay and equal amounts of protein (60 μg) were loaded to each lane of 8% acrylamid gels in Laemmli buffer. After electrophoresis proteins were blotted on nitrocellulose membranes (Amersham). Membranes were probed for NEP using the monoclonal antibody 56C6 at a dilution of 1:50. Blots were stripped in a buffer containing 2% SDS, 62.5 mM Tris (pH 6.8) and 100 mM β-mercaptoethanol at 50° C. for 30 minutes. After stripping the membrane were probed sequentially with anti-Alzheimer precursor protein A4 antibody (clone 22C11, 1:1000), IDE-1 (1:800), ACE (1:200), and the polyclonal antibody to 24.15 protein (1:600). Finally, staining for actin (1:1000) was performed as a loading control. […]
as §2

NEP [4] = experiment: Western blot and densitometry of NEP in brain extracts after Aβ42 injection; assay type: in vivo; conditions: as early as one week after Aβ42 injection; SwAPP and wild-type mice; vs uninjected or PBS-injected
Method: Actin was used to control for equal loading (a). […] The intensity of each NEP and actin bands was measured using the NIH-Image software. […] Data represent means of each group+SEM * p≦0.05, ** p≦0.01, Mann-Whitney U test. n=3 for each group.
All mice used in this study were the progeny of a single SwAPP male, crossbred to wild-type littermates. The colony was housed under a light cycle of 12 hours with dry food and water ad libitum. […] After the injection, the needle was left in place for 1 more minute, and then was slowly withdrawn over a period of 1 minute.
Western-blot analysis: Protein concentration of brain extracts were determined with the Bredford protein assay and equal amounts of protein (60 μg) were loaded to each lane of 8% acrylamid gels in Laemmli buffer. After electrophoresis proteins were blotted on nitrocellulose membranes (Amersham). Membranes were probed for NEP using the monoclonal antibody 56C6 at a dilution of 1:50. […]

[5] = test system: angiotensin converting enzyme (ACE); experiment: ACE brain tissue levels; assay type: in vivo; conditions: treated vs untreated mice, any examined time point after Aβ42 injection
Method: as §1, §3, §4

[6] = test system: insulin-degrading enzyme (IDE); experiment: IDE brain tissue levels by immunohistochemistry and Western blotting; assay type: in vivo, mice; conditions: in response to Aβ42 injections
Method: as §1, §3, §4

Molecule	inhibition of NL-1 (NL-1 (neprilysin like 1))	brain Aβ levels (ELISA, formic acid extracted total Aβ) (human Aβ)	thioflavin S- or 4G8-positive amyloid plaques (transgenic SwAPP mice [1]; SwAPP mice at 31 weeks of age, 20 weeks after single injection (4/4), vs untreated SwAPP mice)	plaque counts of 4G8 stained amyloid plaques (transgenic SwAPP mice [1]; SwAPP mice, 20 weeks after injection, vs untreated littermates, p≦0.05)	GFAP-positive astrocytes in hippocampi (transgenic SwAPP mice [2]; Aβ42-treated SwAPP mice)	amyloid plaque-associated clusters of GFAP-positive cells (transgenic SwAPP mice [2]; SwAPP mice after Aβ42 injections)	GFAP staining of reactive astrocytes in cerebral cortices (transgenic SwAPP mice [2]; SwAPP mice, 20 weeks after injection, vs untreated SwAPP littermates)	metalloprotease 24.15 levels (metalloprotease 24.15)	neuronal NEP immunoreactivity (NEP [3])	β-amyloid-plaque formation, neuritic dystrophy and astrogliosis (PDAPP transgenic mouse; immunisation of young animals (6 weeks of age))	extent and progression of AD-like neuropathologies (PDAPP transgenic mouse; treatment of older animals (11 months))	APP levels (APP)	NEP protein levels in brain extracts (Western blot) (NEP [4])	ACE levels [5]	tissue levels of IDE [6]
CC(C)C[C@H](NP(=O)(O)O[C@@H]1O[C@@H](C)[C@H](O)[C@@H](O)[C@H]1O)C(=O)N[C@@H](Cc1c[nH]c2ccccc12)C(=O)O [phosphoramidon]	efficiently inhibited	–	–	–	–	–	–	–	–	–	–	–	–	–	–
Aβ42: Fibrillar aggregated synthetic Aβ42 prepared by resuspending lyophilized Aβ42 (Bachem) in PBS, pH 7.4 by shaking for 48 hours at 37° C.	–	significantly reduced; also recorded: untreated control SwAPP mice (n=4) were significantly higher than in Aβ42-treated SwAPP mice	significant reduction; also recorded: completely free	significantly reduced; also recorded: marked significant decrease	abundant	completely absent	significantly lower	unchanged	increased	essentially prevented	markedly reduced	no difference	significant increase; also recorded: significantly higher	did not differ	no differences
